± gives the expanded uncertainty stated by the source.
Columns and labels:
[1] = for surface tension liquid-gas: Ring tensiometer; for mass density: 101 kPa, Liquid
[2] = xn = mol fraction of the nth substance listed; conditions: x2 = 0; for surface tension liquid-gas: Ring tensiometer; for mass density: 101 kPa, Liquid

| Structure (SMILES) | surface tension liquid-gas ([1]; 278.15 K) [mN/m] | mass density ([1]; 278.15 K) [kg/m3] | surface tension liquid-gas ([1]; 283.15 K) [mN/m] | mass density ([1]; 283.15 K) [kg/m3] | surface tension liquid-gas ([1]; 288.15 K) [mN/m] | mass density ([1]; 288.15 K) [kg/m3] | surface tension liquid-gas ([1]; 293.15 K) [mN/m] | mass density ([1]; 293.15 K) [kg/m3] | surface tension liquid-gas ([1]; 298.15 K) [mN/m] | mass density ([1]; 298.15 K) [kg/m3] | surface tension liquid-gas ([1]; 303.15 K) [mN/m] | mass density ([1]; 303.15 K) [kg/m3] | surface tension liquid-gas ([1]; 308.15 K) [mN/m] | mass density ([1]; 308.15 K) [kg/m3] | surface tension liquid-gas ([1]; 313.15 K) [mN/m] | mass density ([1]; 313.15 K) [kg/m3] | also measured |
| --- | --- | --- | --- | --- | --- | --- | --- | --- | --- | --- | --- | --- | --- | --- | --- | --- | --- |
| CC#N [acetonitrile] | 30.5 ± 0.5 | 793.3 ± 1.9 | 30.1 ± 0.5 | 788.8 ± 1.9 | 29.7 ± 0.5 | 784.3 ± 2 | 29.3 ± 0.5 | 778.3 ± 2 | 28.9 ± 0.5 | 776.75 ± 2 | 28.5 ± 0.4 | 771.5 ± 2 | 28.1 ± 0.4 | 766.3 ± 2.1 | 27.7 ± 0.4 | 761 ± 2.1 | – |
| CCCO [propan-1-ol] | 24.9 ± 0.4 | 816.3 ± 1.8 | 24.5 ± 0.4 | 812.4 ± 1.8 | 24.1 ± 0.4 | 808.6 ± 1.8 | 23.7 ± 0.4 | 803.61 ± 1.9 | 23.3 ± 0.4 | 799.58 ± 1.9 | 22.9 ± 0.4 | 795.48 ± 1.9 | 22.5 ± 0.4 | 792.8 ± 1.9 | 22.2 ± 0.4 | 787.02 ± 1.9 | – |
| CCCO [propan-1-ol] + CC#N | – | – | – | – | – | – | – | – | – | – | – | – | – | – | – | – | surface tension liquid-gas ([2]; 278.15 K): 24.9 ± 0.4 mN/m; mass density ([2]; 278.15 K): 816.3 ± 1.8 kg/m3; surface tension liquid-gas ([2]; 283.15 K): 24.5 ± 0.4 mN/m; mass density ([2]; 283.15 K): 812.4 ± 1.8 kg/m3; surface tension liquid-gas ([2]; 288.15 K): 24.1 ± 0.4 mN/m; mass density ([2]; 288.15 K): 808.6 ± 1.8 kg/m3; surface tension liquid-gas ([2]; 293.15 K): 23.7 ± 0.4 mN/m; mass density ([2]; 293.15 K): 803.61 ± 1.9 kg/m3; surface tension liquid-gas ([2]; 298.15 K): 23.3 ± 0.4 mN/m; mass density ([2]; 298.15 K): 799.58 ± 1.9 kg/m3; surface tension liquid-gas ([2]; 303.15 K): 22.9 ± 0.4 mN/m; mass density ([2]; 303.15 K): 795.48 ± 1.9 kg/m3; surface tension liquid-gas ([2]; 308.15 K): 22.5 ± 0.4 mN/m; mass density ([2]; 308.15 K): 792.8 ± 1.9 kg/m3; surface tension liquid-gas ([2]; 313.15 K): 22.2 ± 0.4 mN/m; mass density ([2]; 313.15 K): 787.02 ± 1.9 kg/m3 |
